Test systems include HOP-62 NSCLC; COLO 205 colon; SN12C renal; BT-549 breast; DU-145 prostate; U251 CNS.
Common to all, as to test: DTP human tumour cell line panel, 48 h

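The compound was tested at five concentrations on cells cultured in 96-well plates, with a 48-hour exposure period. GI50 is the concentration that inhibits growth by half. The concentration for full growth arrest is given as TGI.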 Some results are limits rather than exact numbers.

By GI50 is commonly meant the concentration at which growth is held to half of that of the control. As a reminder, the TGI is the concentration giving total growth inhibition. High values mean less potent growth arrest, low ones more potent growth arrest. `CCOC(=O)c1c(Cl)c2c(n1Cc1cc(OC)cc(OC)c1)-c1oncc1CCC2`: the GI50 is 0.466 µM with HOP-62 NSCLC; 0.301 µM in the experiment with COLO 205 colon; 0.77 µM with SN12C renal; 19.6 µM in the experiment on BT-549 breast; 0.35 µM with DU-145 prostate; 0.351 µM in the experiment on U251 CNS. Further, the TGI in the experiment with HOP-62 NSCLC was > 33.3 µM; in the experiment with COLO 205 colon it was 1.49 µM; with SN12C renal, > 100 µM; in the experiment with BT-549 breast it was > 100 µM; with DU-145 prostate, 97.7 µM; in the experiment with U251 CNS, > 100 µM.

As for `NC(=O)Oc1cc(OC(N)=O)cc(N(CCCl)CCCl)c1`, the GI50 was 20.9 µM with HOP-62 NSCLC; 15.2 µM in the experiment on COLO 205 colon; 2.41 µM in the experiment on SN12C renal; 7.93 µM in the experiment on BT-549 breast; 3.06 µM with DU-145 prostate; 2.24 µM in the experiment on U251 CNS. Also, the TGI was > 100 µM in the experiment with HOP-62 NSCLC; 38.6 µM in the experiment with COLO 205 colon; > 100 µM with SN12C renal; 30.7 µM in the experiment on BT-549 breast; 51.2 µM with DU-145 prostate; 54.9 µM in the experiment with U251 CNS.

`ON(CCc1ccccn1)Cc1ccccc1`: the concentration for total growth inhibition (TGI) in the experiment on HOP-62 NSCLC, with COLO 205 colon, in the experiment on SN12C renal, with BT-549 breast, in the experiment with DU-145 prostate and in the experiment on U251 CNS was > 100 µM throughout.

For `CN1CCN(Cc2ccc(Nc3ncc(Cl)c(Nc4ccccc4S(=O)(=O)N(C)C)n3)cc2)CC1`, the GI50 in the experiment on HOP-62 NSCLC is 0.0344 µM; in the experiment on COLO 205 colon, 0.0278 µM; in the experiment on SN12C renal it was 0.0399 µM; in the experiment with BT-549 breast, 0.137 µM; in the experiment on DU-145 prostate it was 0.0516 µM; in the experiment with U251 CNS it was 0.038 µM. Also, the total growth inhibition concentration (TGI) with HOP-62 NSCLC is 0.9 µM; in the experiment with COLO 205 colon, 0.222 µM; with SN12C renal it was 1.23 µM; in the experiment on BT-549 breast, 0.374 µM; in the experiment on DU-145 prostate, > 100 µM; in the experiment with U251 CNS, 1.46 µM.

With `O=C(/C=C\Sc1nccc(C(F)(F)F)n1)c1ccc(Br)cc1`, the GI50 in the experiment on HOP-62 NSCLC is > 100 µM; with COLO 205 colon, 18.6 µM; in the experiment on SN12C renal it was 18.8 µM; in the experiment with BT-549 breast, 44.6 µM; in the experiment with DU-145 prostate, 17.6 µM; with U251 CNS it was 25 µM. In addition, the TGI is > 100 µM in the experiment with HOP-62 NSCLC; 36.5 µM with COLO 205 colon; 43.1 µM in the experiment with SN12C renal; > 100 µM in the experiment on BT-549 breast; 47.9 µM with DU-145 prostate; 72.8 µM in the experiment on U251 CNS.

As for `C/C(=C\c1ccn(-c2ccc(N)cc2)n1)[C@@H]1C[C@@H]2O[C@]2(C)CCC[C@H](C)[C@H](O)[C@@H](C)C(=O)C(C)(C)[C@@H](O)CC(=O)O1`, the GI50 in the experiment on HOP-62 NSCLC is 0.0682 µM; with COLO 205 colon, 0.0175 µM; with SN12C renal it was 0.201 µM; in the experiment with BT-549 breast it was 0.138 µM; in the experiment with DU-145 prostate, 0.0314 µM; in the experiment with U251 CNS it was 0.0321 µM. Further, the TGI with HOP-62 NSCLC was > 50 µM; in the experiment on COLO 205 colon it was 0.634 µM; in the experiment on SN12C renal, > 50 µM; in the experiment with BT-549 breast, > 50 µM; in the experiment with DU-145 prostate it was 0.577 µM; in the experiment with U251 CNS, > 50 µM.

In the case of `Cc1ccc(NC(=O)c2ccnc(N3CCCC3)c2)cc1-c1ccc(C(=O)NCC2CC2)cc1`, the GI50 with HOP-62 NSCLC, with COLO 205 colon, with SN12C renal, in the experiment with BT-549 breast, in the experiment on DU-145 prostate and in the experiment on U251 CNS was > 25 µM each time. Moreover, the TGI in the experiment on HOP-62 NSCLC, in the experiment with COLO 205 colon, in the experiment with SN12C renal, with BT-549 breast, with DU-145 prostate and with U251 CNS was > 25 µM in each case.

For `O=C1/C(=C/c2ccc(Cl)cc2)CN(C(=O)C(Cl)Cl)C/C1=C\c1ccc(Cl)cc1`, the concentration for 50% growth inhibition (GI50) with HOP-62 NSCLC was 0.288 µM; in the experiment with COLO 205 colon, 0.233 µM; with SN12C renal it was 0.203 µM; in the experiment on BT-549 breast, 0.259 µM; in the experiment on DU-145 prostate, 0.357 µM; in the experiment with U251 CNS, 0.052 µM. Also, the TGI in the experiment with HOP-62 NSCLC came to 0.94 µM; in the experiment on COLO 205 colon, 0.756 µM; in the experiment on SN12C renal, 0.541 µM; in the experiment with BT-549 breast it was 0.765 µM; with DU-145 prostate, 1.31 µM; with U251 CNS it was 0.186 µM.

`Cc1ccc2sc3c(NCCCNCCO)nc4ccccc4c3c(=O)c2c1`: the GI50 with HOP-62 NSCLC was 1.27 µM; in the experiment with COLO 205 colon, 1.55 µM; with SN12C renal, 1.6 µM; with BT-549 breast it was 1.54 µM; in the experiment on DU-145 prostate, 1.71 µM; in the experiment on U251 CNS, 1.6 µM. The TGI with HOP-62 NSCLC was 2.87 µM; in the experiment with COLO 205 colon it was 3.19 µM; in the experiment on SN12C renal, 3.16 µM; with BT-549 breast, 3.02 µM; in the experiment on DU-145 prostate it was 3.15 µM; in the experiment with U251 CNS, 3.18 µM.

Turning to `O=C(Cn1ccnc1[N+](=O)[O-])NCC(F)(F)C(F)(F)F`, the GI50 in the experiment with HOP-62 NSCLC, in the experiment on COLO 205 colon, with SN12C renal, with BT-549 breast, in the experiment with DU-145 prostate and in the experiment with U251 CNS was > 100 µM in each case. For the same compound, the TGI in the experiment with HOP-62 NSCLC, in the experiment on COLO 205 colon, with SN12C renal, with BT-549 breast, in the experiment on DU-145 prostate and with U251 CNS was > 100 µM throughout.

Regarding `Clc1ccc(CO/N=C(\Cn2ccnc2)c2ccc(Cl)cc2Cl)c(Cl)c1`, the GI50 in the experiment with HOP-62 NSCLC was 1.56 µM; in the experiment with COLO 205 colon it was 1.86 µM; in the experiment on SN12C renal, 1.44 µM; in the experiment with BT-549 breast, 1.97 µM; with DU-145 prostate, 1.96 µM; in the experiment with U251 CNS, 1.51 µM. The total growth inhibition concentration (TGI) was 2.9 µM with HOP-62 NSCLC; 3.29 µM in the experiment with COLO 205 colon; 2.93 µM in the experiment on SN12C renal; 3.61 µM in the experiment with BT-549 breast; 3.66 µM in the experiment with DU-145 prostate; 2.94 µM in the experiment on U251 CNS.

For the compound `COc1ccc2c(c1)Cc1c-2c(NN)nc2ccccc12`, the GI50 in the experiment with HOP-62 NSCLC was 56.6 µM; in the experiment with COLO 205 colon, 22.1 µM; with SN12C renal it was 40.3 µM; in the experiment on BT-549 breast, 50.4 µM; with DU-145 prostate it was 32 µM; in the experiment on U251 CNS, 21.5 µM. The concentration for total growth inhibition (TGI) in the experiment on HOP-62 NSCLC was > 100 µM; in the experiment on COLO 205 colon, > 100 µM; with SN12C renal, > 100 µM; in the experiment with BT-549 breast it was > 100 µM; in the experiment with DU-145 prostate, > 100 µM; with U251 CNS, 68.7 µM.

Source of the values: PubChem BioAssay (NCI).
